Experimental data: patent US20230019491A1, “PYRIMIDINE TBK/IKKe INHIBITOR COMPOUNDS AND USES THEREOF” (Merck Patent GmbH, priority 2017, published 2023)
Counter-ions that a name gives are not always drawn.

How the values were obtained:
[1] = biological target: T1, IKKε (Homo sapiens, UniProt Q14164); assay: IKKε biochemical assay; details: 10 point 1:4 dose response, 30 uM top concentration, 90 min at 25° C., LabChip EZ Reader II; read-out: IKKε_IC50
T1 sequence (Q14164 1-716): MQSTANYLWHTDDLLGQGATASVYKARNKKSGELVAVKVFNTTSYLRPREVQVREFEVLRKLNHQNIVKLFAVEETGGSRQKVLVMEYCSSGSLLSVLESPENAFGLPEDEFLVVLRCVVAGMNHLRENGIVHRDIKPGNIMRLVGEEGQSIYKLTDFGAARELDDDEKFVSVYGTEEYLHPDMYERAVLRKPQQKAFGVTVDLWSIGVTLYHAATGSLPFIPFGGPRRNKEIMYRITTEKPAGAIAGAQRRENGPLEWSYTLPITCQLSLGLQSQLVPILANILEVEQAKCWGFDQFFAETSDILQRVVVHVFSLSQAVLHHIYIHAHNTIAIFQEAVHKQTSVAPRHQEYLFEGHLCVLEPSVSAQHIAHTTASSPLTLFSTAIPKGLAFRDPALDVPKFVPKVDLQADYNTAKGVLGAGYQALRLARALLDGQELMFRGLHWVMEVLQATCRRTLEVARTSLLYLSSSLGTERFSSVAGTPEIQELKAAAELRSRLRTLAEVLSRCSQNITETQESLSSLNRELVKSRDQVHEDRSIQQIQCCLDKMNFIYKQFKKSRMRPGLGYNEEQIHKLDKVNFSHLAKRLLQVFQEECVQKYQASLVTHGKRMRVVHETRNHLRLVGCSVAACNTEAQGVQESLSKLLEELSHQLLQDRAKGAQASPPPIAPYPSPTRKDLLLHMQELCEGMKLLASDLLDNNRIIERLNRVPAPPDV
Procedure, shortened: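 Mobility-shift LabChip read-out followed a 90 min, 25° C. reaction of IKKε with substrate and test compound, with DMSO held at 1% final. Reactions were ended with stop buffer. Wells with 10 uM final staurosporine defined complete inhibition, and DMSO-only wells the uninhibited level.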

[2] = biological target: T2, TBK1 (Homo sapiens, UniProt Q9UHD2); assay: TBK biochemical assay; details: 10 point 1:4 dose response, 30 uM top concentration, 90 min at 25° C., LabChip EZ Reader II; read-out: TBK1_IC50
T2 sequence (Q9UHD2 1-729): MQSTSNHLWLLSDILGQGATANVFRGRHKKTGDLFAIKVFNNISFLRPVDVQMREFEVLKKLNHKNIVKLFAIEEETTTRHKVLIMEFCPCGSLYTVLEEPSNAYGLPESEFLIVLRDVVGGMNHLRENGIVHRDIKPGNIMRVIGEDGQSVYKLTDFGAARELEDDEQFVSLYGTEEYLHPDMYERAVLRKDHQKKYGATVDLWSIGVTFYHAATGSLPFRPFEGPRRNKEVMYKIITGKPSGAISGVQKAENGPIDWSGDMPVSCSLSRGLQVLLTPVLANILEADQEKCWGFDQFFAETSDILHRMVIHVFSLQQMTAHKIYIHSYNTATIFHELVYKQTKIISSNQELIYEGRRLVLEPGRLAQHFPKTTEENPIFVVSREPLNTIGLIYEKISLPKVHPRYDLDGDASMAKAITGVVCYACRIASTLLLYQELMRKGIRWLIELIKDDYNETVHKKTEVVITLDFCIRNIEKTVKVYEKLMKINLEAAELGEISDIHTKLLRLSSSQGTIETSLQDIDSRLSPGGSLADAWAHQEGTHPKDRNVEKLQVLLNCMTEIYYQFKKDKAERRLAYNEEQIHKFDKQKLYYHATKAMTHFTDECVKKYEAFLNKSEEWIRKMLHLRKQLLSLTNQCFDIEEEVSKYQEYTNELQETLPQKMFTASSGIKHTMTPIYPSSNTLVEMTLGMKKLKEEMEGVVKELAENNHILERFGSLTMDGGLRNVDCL
Procedure, shortened: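 Read-out was a Caliper LabChip mobility-shift assay, run after a 90-min, 25 °C reaction of TBK1 with substrate and compounds, quenched with stop buffer. Control wells received staurosporine at 10 uM final.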

SMILES	IC50 [1] [nM]	IC50 [2] [nM]
COc1nc(Nc2nccc(-c3ccc(OC4CCNCC4(F)F)c(C#N)c3)n2)ccc1C(=O)N(C)C (stereo not drawn) [Example 76, 6-[(4-[3-cyano-4-[(3,3-difluoropiperidin-4-yl)oxy]phenyl]pyrimidin-2-yl)amino]-2-methoxy-N,N-dimethylpyridine-3-carboxamide]	< 100	< 100
COc1nc(Nc2nccc(-c3ccc(OC4CCN(C(=O)c5cocn5)CC4)c(C#N)c3)n2)ccc1C(=O)N(C)C [Example 77, 6-([4-[3-cyano-4-([1-[(1,3-oxazol-4-yl)carbonyl]piperidin-4-yl]oxy)phenyl]pyrimidin-2-yl]amino)-2-methoxy-N,N-dimethylpyridine-3-carboxamide]	< 100	< 100
COc1nc(Nc2nccc(-c3ccc(OC4CCN(C(=O)c5n[nH]c(C)n5)CC4)c(C#N)c3)n2)ccc1C(=O)N(C)C [Example 78, 6-([4-[3-cyano-4-([1-[(5-methyl-1H-1,2,4-triazol-3-yl)carbonyl]piperidin-4-yl]oxy)phenyl]pyrimidin-2-yl]amino)-2-methoxy-N,N-dimethylpyridine-3-carboxamide]	< 100	< 100
COc1nc(Nc2nccc(-c3ccc(OC4CCN(C(=O)c5cnco5)CC4)c(C#N)c3)n2)ccc1C(=O)N(C)C [Example 79, 6-([4-[3-cyano-4-([1-[(1,3-oxazol-5-yl)carbonyl]piperidin-4-yl]oxy)phenyl]pyrimidin-2-yl]amino)-2-methoxy-N,N-dimethylpyridine-3-carboxamide]	< 100	< 100
CN1CCN(c2ccc(Nc3nccc(-c4ccc(OC5CN(C)C5)c(C#N)c4)n3)nc2)CC1 [Example 81, 2-[(1-methylazetidin-3-yl)oxy]-5-(2-[[5-(4-methylpiperazin-1-yl)pyridin-2-yl]amino]pyrimidin-4-yl)benzonitrile]	1000 to 5000	1000 to 5000
CN1CCN(c2ccc(Nc3nccc(-c4ccc(OC5CCN(C)C5)c(C#N)c4)n3)nc2)CC1 (stereo not drawn) [Example 82, 5-(2-[[5-(4-methylpiperazin-1-yl)pyridin-2-yl]amino]pyrimidin-4-yl)-2-[(1-methylpyrrolidin-3-yl)oxy]benzonitrile hydrochloride]	1000 to 5000	> 5000
CN1CCC(Oc2ccc(-c3ccnc(Nc4ccc(N5CCN(C)CC5)cn4)n3)cc2C#N)CC1 [Example 83, 5-(2-[[5-(4-methylpiperazin-1-yl)pyridin-2-yl]amino]pyrimidin-4-yl)-2-[(1-methylpiperidin-4-yl)oxy]benzonitrile]	1000 to 5000	> 5000
CN1CCN(c2ccc(Nc3nccc(-c4ccc(O[C@H]5CCN(C)C[C@H]5F)c(C#N)c4)n3)nc2)CC1 [Example 84, 2-[[(3R,4S)-3-fluoro-1-methylpiperidin-4-yl]oxy]-5-(2-[[5-(4-methylpiperazin-1-yl)pyridin-2-yl]amino]pyrimidin-4-yl)benzonitrile]	< 100	100 to 1000
CN1CCN(c2ccc(Nc3nccc(-c4ccc(OC5CCN(C)CC5(F)F)c(C#N)c4)n3)nc2)CC1 (stereo not drawn) [Example 85, 2-[(3,3-difluoro-1-methylpiperidin-4-yl)oxy]-5-(2-[[5-(4-methylpiperazin-1-yl)pyridin-2-yl]amino]pyrimidin-4-yl)benzonitrile]	100 to 1000	100 to 1000
COc1nc(Nc2nccc(-c3ccc(OC4CN(C)C4)c(C#N)c3)n2)ccc1N1CCN(C)CC1 [Example 86, 5-(2-[[6-methoxy-5-(4-methylpiperazin-1-yl)pyridin-2-yl]amino]pyrimidin-4-yl)-2-[(1-methylazetidin-3-yl)oxy]benzonitrile]	100 to 1000	100 to 1000
COc1nc(Nc2nccc(-c3ccc(OC4CCN(C)C4)c(C#N)c3)n2)ccc1N1CCN(C)CC1 (stereo not drawn) [Example 87, 5-(2-[[6-methoxy-5-(4-methylpiperazin-1-yl)pyridin-2-yl]amino]pyrimidin-4-yl)-2-[(1-methylpyrrolidin-3-yl)oxy]benzonitrile]	< 100	< 100
COc1nc(Nc2nccc(-c3ccc(OC4CCN(C)CC4)c(C#N)c3)n2)ccc1N1CCN(C)CC1 [Example 88, 5-(2-[[6-methoxy-5-(4-methylpiperazin-1-yl)pyridin-2-yl]amino]pyrimidin-4-yl)-2-[(1-methylpiperidin-4-yl)oxy]benzonitrile]	100 to 1000	100 to 1000
COc1nc(Nc2nccc(-c3ccc(OC4CCNCC4)c(C#N)c3)n2)ccc1N1CCN(C)CC1 [Example 89, 5-(2-[[6-methoxy-5-(4-methylpiperazin-1-yl)pyridin-2-yl]amino]pyrimidin-4-yl)-2-(piperidin-4-yloxy)benzonitrile]	< 100	< 100
COc1nc(Nc2nccc(-c3ccc(OC4CCN(C(=O)CO)CC4)c(C#N)c3)n2)ccc1N1CCN(C)CC1 [Example 90, 2-[[1-(2-hydroxyacetyl)piperidin-4-yl]oxy]-5-(2-[[6-methoxy-5-(4-methylpiperazin-1-yl)pyridin-2-yl]amino]pyrimidin-4-yl)benzonitrile]	< 100	< 100
COc1nc(Nc2nccc(-c3ccc(OC4CCN(C(=O)C(C)O)CC4)c(C#N)c3)n2)ccc1N1CCN(C)CC1 (stereo not drawn) [Example 91, 2-[[1-(2-hydroxypropanoyl)piperidin-4-yl]oxy]-5-(2-[[6-methoxy-5-(4-methylpiperazin-1-yl)pyridin-2-yl]amino]pyrimidin-4-yl)benzonitrile hydrochloride]	< 100	< 100
COc1nc(Nc2nccc(-c3ccc(OC4CCN(C(=O)c5cnco5)CC4)c(C#N)c3)n2)ccc1N1CCN(C)CC1 [Example 92, 5-(2-[[6-methoxy-5-(4-methylpiperazin-1-yl)pyridin-2-yl]amino]pyrimidin-4-yl)-2-([1-[(1,3-oxazol-5-yl)carbonyl]piperidin-4-yl]oxy)benzonitrile]	< 100	< 100
COc1nc(Nc2nccc(-c3ccc(OC4CCN(C(=O)c5cocn5)CC4)c(C#N)c3)n2)ccc1N1CCN(C)CC1 [Example 93, 5-(2-[[6-methoxy-5-(4-methylpiperazin-1-yl)pyridin-2-yl]amino]pyrimidin-4-yl)-2-([1-[(1,3-oxazol-4-yl)carbonyl]piperidin-4-yl]oxy)benzonitrile]	< 100	< 100
COc1nc(Nc2nccc(-c3ccc(OC4CCN(C(=O)c5n[nH]c(C)n5)CC4)c(C#N)c3)n2)ccc1N1CCN(C)CC1 [Example 94, 5-(2-[[6-methoxy-5-(4-methylpiperazin-1-yl)pyridin-2-yl]amino]pyrimidin-4-yl)-2-([1-[(5-methyl-1H-1,2,4-triazol-3-yl)carbonyl]piperidin-4-yl]oxy)benzonitrile]	< 100	< 100
COc1nc(Nc2nccc(-c3ccc(O[C@H]4CCNC[C@H]4F)c(C#N)c3)n2)ccc1N1CCN(C)CC1 [Example 95]	< 100	< 100
COc1nc(Nc2nccc(-c3ccc(O[C@H]4CCN(C)C[C@H]4F)c(C#N)c3)n2)ccc1N1CCN(C)CC1 [Example 96, 2-(((3R,4S)-3-fluoro-1-methylpiperidin-4-yl)oxy)-5-(2-((6-methoxy-5-(4-methylpiperazin-1-yl)pyridin-2-yl)amino)pyrimidin-4-yl)benzonitrile]	< 100	< 100
COc1nc(Nc2nccc(-c3ccc(OC4CCNCC4(F)F)c(C#N)c3)n2)ccc1N1CCN(C)CC1 (stereo not drawn) [Example 97, 2-[(3,3-difluoropiperidin-4-yl)oxy]-5-(2-[[6-methoxy-5-(4-methylpiperazin-1-yl)pyridin-2-yl]amino]pyrimidin-4-yl)benzonitrile]	< 100	< 100
